# Assay results reported in patent US7172862B2, “FBL2-specific agents as modulators of Flaviviridae RNA replication” (Board of Regents, The University of Texas System, priority 2005, dated 2007).
# Numbering of substitutions follows the chain as printed. Names and notes keep the numbering of the source.
# B1: wild-type FBL2: NH2-terminal Myc-tagged wild-type FBL2 expressed from a transfected plasmid (protein, UniProt Q9UKC9 1-423, looked up)
# F-box/LRR-repeat protein 2: MVFSNNDEGLINKKLPKELLLRIFSFLDIVTLCRCAQISKAWNILALDGSNWQRIDLFNFQTDVEGRVVENISKRCGGFLRKLSLRGCIGVGDSSLKTFAQNCRNIEHLNLNGCTKITDSTCYSLSRFCSKLKHLDLTSCVSITNSSLKGISEGCRNLEYLNLSWCDQITKDGIEALVRGCRGLKALLLRGCTQLEDEALKHIQNYCHELVSLNLQSCSRITDEGVVQICRGCHRLQALCLSGCSNLTDASLTALGLNCPRLQILEAARCSHLTDAGFTLLARNCHELEKMDLEECILITDSTLIQLSIHCPKLQALSLSHCELITDDGILHLSNSTCGHERLRVLELDNCLLITDVALEHLENCRGLERLELYDCQQVTRAGIKRMRAQLPHVKVHAYFAPVTPPTAVAGSGQRLCRCCVIL
# modifications: N-terminal Myc tag
# notes: NH2-terminal Myc-tagged wild-type FBL2 expressed from a transfected plasmid
# B2: FBL2(67-423): FBL2 with its NH2-terminal F-box deleted; dominant-negative for HCV RNA replication (protein, UniProt Q9UKC9 67-423, looked up, fragment)
# chain: RVVENISKRCGGFLRKLSLRGCIGVGDSSLKTFAQNCRNIEHLNLNGCTKITDSTCYSLSRFCSKLKHLDLTSCVSITNSSLKGISEGCRNLEYLNLSWCDQITKDGIEALVRGCRGLKALLLRGCTQLEDEALKHIQNYCHELVSLNLQSCSRITDEGVVQICRGCHRLQALCLSGCSNLTDASLTALGLNCPRLQILEAARCSHLTDAGFTLLARNCHELEKMDLEECILITDSTLIQLSIHCPKLQALSLSHCELITDDGILHLSNSTCGHERLRVLELDNCLLITDVALEHLENCRGLERLELYDCQQVTRAGIKRMRAQLPHVKVHAYFAPVTPPTAVAGSGQRLCRCCVIL
# B3: FBL2(67-423; C420S): FBL2 with both its F-box deleted and its CAAX box mutated (protein, UniProt Q9UKC9 67-423, looked up, fragment C420S)
# chain: B2 chain with C354S
# B4: FBL2(50-423): alternative FBL2 N-terminal truncation (protein, UniProt Q9UKC9 50-423, looked up, fragment)
# chain: SNWQRIDLFNFQTDVEGRVVENISKRCGGFLRKLSLRGCIGVGDSSLKTFAQNCRNIEHLNLNGCTKITDSTCYSLSRFCSKLKHLDLTSCVSITNSSLKGISEGCRNLEYLNLSWCDQITKDGIEALVRGCRGLKALLLRGCTQLEDEALKHIQNYCHELVSLNLQSCSRITDEGVVQICRGCHRLQALCLSGCSNLTDASLTALGLNCPRLQILEAARCSHLTDAGFTLLARNCHELEKMDLEECILITDSTLIQLSIHCPKLQALSLSHCELITDDGILHLSNSTCGHERLRVLELDNCLLITDVALEHLENCRGLERLELYDCQQVTRAGIKRMRAQLPHVKVHAYFAPVTPPTAVAGSGQRLCRCCVIL
# B5: FBL2(100-423): alternative FBL2 N-terminal truncation (protein, UniProt Q9UKC9 100-423, looked up, fragment)
# chain: AQNCRNIEHLNLNGCTKITDSTCYSLSRFCSKLKHLDLTSCVSITNSSLKGISEGCRNLEYLNLSWCDQITKDGIEALVRGCRGLKALLLRGCTQLEDEALKHIQNYCHELVSLNLQSCSRITDEGVVQICRGCHRLQALCLSGCSNLTDASLTALGLNCPRLQILEAARCSHLTDAGFTLLARNCHELEKMDLEECILITDSTLIQLSIHCPKLQALSLSHCELITDDGILHLSNSTCGHERLRVLELDNCLLITDVALEHLENCRGLERLELYDCQQVTRAGIKRMRAQLPHVKVHAYFAPVTPPTAVAGSGQRLCRCCVIL
# How the values were obtained:
# [1] = system: wild-type FBL2; assay: Subcellular fractionation (cytosol/membrane) and immunoblot of transfected wild-type FBL2 in CHO-7 cells; assay type: cell-based; settings: CHO-7 cells transfected with Myc-tagged wild-type FBL2; immunoblot anti-Myc
# Description: (§1) Since prenylation of proteins normally facilitates their membrane association, we compared the localization of wild-type FBL2 and the mutant FBL2 that cannot be prenylated. CHO-7 cells transfected with a plasmid encoding NH2-terminal Myc-tagged wild-type FBL2 or mutant FBL2(C420S) were treated either with GGTI-286, a drug that inhibits both geranylgeranylation and farnesylation, or with FPTI-III, a drug that inhibits only farnesylation (Ye et al., 2003). Cells were fractionated into cytosol and membrane fractions, and immunoblotted with monoclonal anti-Myc IgG-9E10.
# [2] = system: HCV RNA; assay: HCV RNA level / replication in Huh7-HP replicon cells; assay type: cell-based; settings: drug treatment
# Text: Further evidence that FBL2 is required for HCV RNA replication was obtained in experiments in which the level of FBL2 mRNA was reduced by transfection with duplex siRNA. An siRNA sequence targeting human FBL2 and having a sequence corresponding to positions 40-60 relative to the first nucleotide start codon, was transfected into Huh7-HP cells with TransMessenger transfection reagent (Qiagen) according to the manufacturer's protocol. […] We confirmed that these cells resemble the other HCV replicon cell lines in that HCV replication is inhibited by treatment with lovastatin (Ye et al., 2003) or an inhibitor of GGTase-I, GGTI-286. The NS5A derived from these cells interacts with FBL2. siRNA targeting FBL2 was and produced a 70% knockdown of FBL2 mRNA, an effect that was not observed when the cells were treated with a control siRNA containing 6 mismatched nucleotides.
# [3] = system: mutant FBL2(C420S); assay: Subcellular fractionation (cytosol/membrane) and immunoblot of transfected mutant FBL2(C420S) in CHO-7 cells; assay type: cell-based; settings: CHO-7 cells transfected with Myc-tagged FBL2(C420S)
# Description: as §1
# [4] = system: HCV RNA replication; settings: cited from earlier work; for overcoming of the inhibition of HCV RNA replication by lovastatin: added with lovastatin
# [5] = system: HCV RNA replicon; assay: HCV RNA level in Huh7-K2040 replicon cells after transfection of FBL2 plasmids; assay type: cell-based; settings: at least 80% of cells transfected
# Text: FBL2(67-423), which lacks an F-box, is likely to be nonfunctional, yet it still binds to NS5A. We therefore considered the possibility that overexpression of FBL2(67-423) may inhibit HCV RNA replication in a dominant-negative fashion by sequestering NS5A and preventing it from interacting with endogenous functional FBL2. To test this hypothesis, we transfected plasmids encoding wild-type and various mutant versions of FBL2 into Huh7-K2040 cells that harbor the HCV RNA replicon. As described above, we included only those experiments in which at least 80% of the cells were transfected. […] Importantly, transfected FBL2(67-423; C420S), which cannot bind to NS5A, had no effect on HCV RNA levels.
# [6] = system: NS5A; settings: Huh7 cells; anti-Flag pull-down of NS5A, anti-Myc blot
# Text: To determine the components of FBL2 that are required for interaction with the NH2-terminal half of NS5A, we made plasmids encoding the following proteins: NH2-terminal Myc-tagged wild-type FBL2, FBL2 with its CAAX box mutated so that it cannot be geranylgeranylated (C420S), FBL2 with its NH2-terminal F-box deleted (FBL2(67-423)), and FBL2 with both its F-box deleted and its CAAX box mutated (FBL2 67-423, C420S). These plasmids were transfected into Huh7 cells together with a plasmid encoding Flag and HA-tagged NS5A. Cell extracts were immunoprecipitated with anti-Flag beads to pull down NS5A and blotted with anti-HA and anti-Myc for detection of transfected NS5A and FBL2, respectively.
# [7] = system: West Nile virus replicon; assay: West Nile virus replicon RNA level in Huh7-WNV-2 cells after transfection of FBL2 plasmids; assay type: cell-based; settings: conditions reducing HCV RNA by 75%
molecule,measurement,setting,value
COC(=O)[C@H](CC(C)C)NC(=O)c1ccc(NC[C@@H](N)CS)cc1-c1ccccc1 [GGTI-286],localization of wild-type FBL2 in cytosol and membrane fractions,[1],distributed equally in cytosol and membrane fractions
same,HCV replication,[2],inhibited
same,subcellular localization of the mutant FBL2 that lacks a CAAX motif,[3],did not change
CC(C)=CCCC(C)=CCCC(C)=CCO [farnesol],overcoming of the inhibition of HCV RNA replication by lovastatin,[4],not
CC(C)=CCC/C(C)=C/CC/C(C)=C/CC/C(C)=C/CO [geranylgeraniol],overcoming of the inhibition of HCV RNA replication by lovastatin,[4],overcome
CC[C@H](C)C(=O)O[C@H]1C[C@@H](C)C=C2C=C[C@H](C)[C@H](CC[C@@H]3C[C@@H](O)CC(=O)O3)[C@H]21 [lovastatin],HCV RNA replication,[4]; Huh7 cells,disrupted
same,HCV replication,[2],inhibited
FPTI-III,localization of wild-type FBL2 in cytosol and membrane fractions,[1],not
B1,reduction of the level of HCV RNA,[5],did not change
same,co-precipitation with NS5A,[6],co-precipitated
B2,co-precipitation with NS5A,[6],co-precipitated
same,change in the level of West Nile virus replicon RNA,[7],no significant change
B3,reduction of the level of HCV RNA,[5],no effect
same,co-precipitation with NS5A,[6],abrogated binding
B4,reduction of the level of HCV RNA,[5],dominant-negative affects
B5,reduction of the level of HCV RNA,[5],dominant-negative affects
